Source: PubChem BioAssay (NCI)
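96-well plates; 48 h exposure; 5 concentrations. Endpoints by linear interpolation between flanking doses. Not reached: highest tested concentration assigned. GI50: concentration for 50% inhibition of growth. TGI: concentration producing complete growth inhibition.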

Legend:
Assay in all cases: NCI anticancer screen, dose series, 48 h
CCRF-CEM leukemia = tested on: CCRF-CEM leukemia
MALME-3M melanoma = tested on: MALME-3M melanoma
NCI-H226 lung = tested on: NCI-H226 lung
OVCAR-5 ovarian = tested on: OVCAR-5 ovarian
RPMI-8226 leukemia = tested on: RPMI-8226 leukemia
SF-268 CNS = tested on: SF-268 CNS
SK-MEL-2 melanoma = tested on: SK-MEL-2 melanoma
SK-MEL-5 melanoma = tested on: SK-MEL-5 melanoma
UACC-257 melanoma = tested on: UACC-257 melanoma
DU-145 prostate = tested on: DU-145 prostate

SMILES | TGI (CCRF-CEM leukemia) [µM] | TGI (MALME-3M melanoma) [µM] | TGI (NCI-H226 lung) [µM] | TGI (OVCAR-5 ovarian) [µM] | TGI (RPMI-8226 leukemia) [µM] | TGI (SF-268 CNS) [µM] | TGI (SK-MEL-2 melanoma) [µM] | TGI (SK-MEL-5 melanoma) [µM] | TGI (UACC-257 melanoma) [µM] | GI50 (CCRF-CEM leukemia) [µM] | GI50 (DU-145 prostate) [µM] | TGI (DU-145 prostate) [µM] | GI50 (NCI-H226 lung) [µM] | GI50 (RPMI-8226 leukemia) [µM] | GI50 (SF-268 CNS) [µM] | GI50 (SK-MEL-2 melanoma) [µM] | GI50 (SK-MEL-5 melanoma) [µM] | GI50 (UACC-257 melanoma) [µM] | GI50 (OVCAR-5 ovarian) [µM] | GI50 (MALME-3M melanoma) [µM]
O=C(Cc1nc2ccccc2s1)Nc1cccc(C(F)(F)F)c1 | 4.79 | 30.8 | 44.7 | 32.5 | 28.7 | 29.7 | 33.8 | 32.2 | 28.7 | – | – | – | – | – | – | – | – | – | – | –
CC(=O)OC(CCC1(C)OC1COc1ccc(CCNC(=O)c2ccccc2)cc1)C(C)(C)OC(C)=O (stereo not given) | > 100 | 80.1 | > 100 | > 100 | > 100 | > 100 | 60.4 | 17.4 | 25.8 | – | – | – | – | – | – | – | – | – | – | –
O=C(Nc1ccccc1)NS(=O)(=O)c1ccc(-n2nc3c(c2-c2ccc(Cl)cc2)Cc2ccccc2-3)cc1 | 10.2 | – | 61.9 | – | 48.9 | 88.2 | 91.8 | 69.8 | > 100 | 3.21 | 19.4 | 47 | 15.5 | 16.5 | 14.8 | 27.4 | 22 | 37.1 | – | –
CN1c2ccccc2C(C)(C)C12C=Cc1cc(O)ccc1O2 (stereo not given) | 10.2 | – | 28.8 | 25.2 | 4.91 | 10.5 | 11.5 | 9.94 | 12.1 | 2.87 | 2.56 | 8.17 | 13.3 | 1.71 | 2.76 | 3.05 | 2.38 | 2.94 | 10.2 | –
C1CCN(c2nc(=[N+]3CCCCC3)ss2)CC1 | > 100 | > 100 | > 100 | > 100 | > 100 | > 100 | > 100 | > 100 | > 100 | – | – | – | – | – | – | – | – | – | – | –
CN(C)c1ccc(Nc2cc(-c3cccc(OC(F)(F)F)c3)nc3ccc(N4CCCC4)cc23)cc1 | – | 3.11 | 15.4 | 3.37 | 4.48 | 3.54 | 26.5 | 3.3 | 3.35 | – | 2.82 | 7.91 | 3.49 | 1.87 | 1.85 | 12.4 | 1.82 | 1.75 | 1.79 | 1.66
CCC1CCc2nc3sc(C(=O)Nc4cccc(F)c4)c(N)c3cc2C1 (stereo not given) | > 100 | – | > 100 | > 100 | > 100 | > 100 | > 100 | > 100 | > 100 | 1.79 | > 100 | > 100 | > 100 | > 100 | > 100 | > 100 | 0.386 | > 100 | > 100 | –
O=C(Nc1nc2ncn(CCNCc3ccccc3)c2c(=O)[nH]1)c1ccccc1 | > 100 | > 100 | > 100 | > 100 | > 100 | > 100 | > 100 | > 100 | > 100 | – | – | – | – | – | – | – | – | – | – | –
Cn1ccnc1C(=O)/C=C/c1ccccc1 | 7.17 | 27.9 | 14.9 | 27.8 | 8.97 | – | 17.1 | 12.5 | 16.2 | 2.7 | 2.8 | 12.7 | 3.24 | 2.91 | – | 3.63 | 2.92 | 4.07 | 13.7 | 12.3
COC(=O)CCCC(=O)O | – | > 100 | > 100 | > 100 | – | > 100 | > 100 | > 100 | > 100 | – | – | > 100 | – | – | – | – | – | – | – | –
O=C1c2ccccc2C(=O)c2c1ccc(C1C(=O)c3ccccc3C1=O)c2-c1c(C2C(=O)c3ccccc3C2=O)ccc2c1C(=O)c1ccccc1C2=O | – | > 100 | > 100 | > 100 | > 100 | > 100 | > 100 | > 100 | > 100 | – | – | > 100 | – | – | – | – | – | – | – | –
CCCCS(=O)(=O)CCC(N)C(=O)O (stereo not given) | > 100 | > 100 | > 100 | > 100 | – | > 100 | > 100 | > 100 | > 100 | – | – | > 100 | – | – | – | – | – | – | – | –
N#CSCC1CC(O)(c2ccccc2)CC(c2ccc(F)cc2)O1 (stereo not given) | 6.08 | 6.44 | – | 5.28 | 4.65 | 3.3 | 3.39 | 3.26 | 11.9 | 1.72 | 1.56 | 3.45 | – | 1.64 | 1.65 | 1.66 | 1.74 | 3.29 | 2.32 | 2.14
O=C(Cn1ccnc1[N+](=O)[O-])c1ccc(F)cc1 | > 100 | > 100 | > 100 | > 100 | > 100 | > 100 | > 100 | > 100 | > 100 | – | – | – | – | – | – | – | – | – | – | –
Cc1c(COc2cc(OCc3cccc(C#N)c3)c(CN3C[C@H](O)C[C@@H]3C(=O)O)cc2Cl)cccc1-c1ccc2c(c1)OCCO2 | – | 28.9 | 31.9 | 31 | – | 42.6 | 41.3 | 5.13 | 41.8 | – | 24.4 | 62.1 | 8.86 | – | 21.1 | 18.8 | 2.14 | 20.6 | 17.3 | 14.7
CC1(C)Cc2cc(C(=O)O)c3c(c2C1=O)COCC3 | > 100 | > 100 | > 100 | > 100 | > 100 | > 100 | > 100 | > 100 | > 100 | – | – | – | – | – | – | – | – | – | – | –
CCCCCCCCCc1cccc(N2C(N)=NC(N)=NC2(C)C)c1 | > 100 | 8.22 | 61.2 | 4.67 | > 100 | – | 4.65 | – | 2.13 | – | – | 8.4 | – | – | – | – | – | – | – | –
